# Experimental data published in US10323022B2, “Pyrrolidinyl urea, pyrrolidinyl thiourea and pyrrolidinyl guanidine compounds as TrkA kinase inhibitors” (Array BioPharma Inc., priority 2011, dated 2019).
# Molecular target: TrkA (Homo sapiens (Human), UniProt P04629)
# Assay: TrkA Omnia Assay
# Format: biochemical
# Settings: averaged IC50; 20 nM enzyme, 500 μM ATP, 10 μM peptide substrate
# Protocol: Trk enzymatic selectivity was assessed using Omnia™ Kinase Assay reagents from Invitrogen Corp. Enzyme (TrkA from Invitrogen Corp.) and test compound (various concentrations) were incubated for 10 minutes at ambient temperature in a 384-well white polypropylene plate (Nunc catalog#267462). Omnia Tyr Peptide #4, as well as ATP, were then added to the plate. Final concentrations were as follows: 20 nM enzyme, 500 μM of ATP, 10 μM peptide substrate. The assay buffer consisted of 25 mM MOPS pH 7.5, 0.005% (v/v) Triton X-100 and 5 mM MgCl2. The production of phosphorylated peptide was monitored continuously for 70 minutes using a Molecular Devices FlexStation II^384 microplate reader (excitation=360 nm; emission=485 nm). Initial rates were calculated from the progress curves. IC50 values were calculated from these rates using either a 4 or 5-parameter logistic curve fit.
# TrkA, sequence (P04629 33-796): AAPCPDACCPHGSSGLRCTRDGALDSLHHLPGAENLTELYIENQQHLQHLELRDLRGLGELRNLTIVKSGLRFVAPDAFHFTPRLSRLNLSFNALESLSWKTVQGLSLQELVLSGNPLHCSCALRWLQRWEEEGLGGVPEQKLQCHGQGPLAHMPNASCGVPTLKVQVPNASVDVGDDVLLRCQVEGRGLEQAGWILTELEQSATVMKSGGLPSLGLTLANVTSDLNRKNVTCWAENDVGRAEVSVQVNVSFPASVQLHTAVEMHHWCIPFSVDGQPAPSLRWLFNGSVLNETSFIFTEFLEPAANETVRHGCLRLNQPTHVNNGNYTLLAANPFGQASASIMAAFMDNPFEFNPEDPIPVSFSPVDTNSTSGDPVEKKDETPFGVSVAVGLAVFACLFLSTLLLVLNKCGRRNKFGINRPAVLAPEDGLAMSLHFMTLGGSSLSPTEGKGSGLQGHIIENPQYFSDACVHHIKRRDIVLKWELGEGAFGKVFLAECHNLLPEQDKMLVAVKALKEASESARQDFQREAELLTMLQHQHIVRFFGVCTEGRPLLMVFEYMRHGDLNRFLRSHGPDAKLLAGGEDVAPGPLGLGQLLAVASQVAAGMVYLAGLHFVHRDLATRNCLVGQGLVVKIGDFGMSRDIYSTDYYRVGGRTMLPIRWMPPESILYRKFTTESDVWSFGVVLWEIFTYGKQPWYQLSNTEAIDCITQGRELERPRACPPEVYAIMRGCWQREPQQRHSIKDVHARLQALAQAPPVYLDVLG
row,SMILES,IC50
1,"CCn1nc(-c2ccccc2)cc1NC(=O)N[C@@H]1CN(CCOC)C[C@H]1c1ccccc1 (relative stereo) [Example 25, 1-(1-ethyl-3-phenyl-1H-pyrazol-5-yl)-3-(trans-1-(2-methoxyethyl)-4-phenylpyrrolidin-3-yl)urea]",100 to 1000 nM
2,"COCCN1C[C@@H](NC(=O)Nc2c3c(nn2-c2ccccc2)CCCC3)[C@H](c2ccccc2)C1 (relative stereo) [Example 26, 1-(trans-1-(2-methoxyethyl)-4-phenylpyrrolidin-3-yl)-3-(2-phenyl-4,5,6,7-tetrahydro-2H-indazol-3-yl)urea]",< 100 nM
3,"COCCN1C[C@@H](NC(=O)Nc2c3c(nn2C)CCC3)[C@H](c2ccccc2)C1 (relative stereo) [Example 27, 1-(trans-1-(2-methoxyethyl)-4-phenylpyrrolidin-3-yl)-3-(2-methyl-2,4,5,6-tetrahydrocyclopenta[c]pyrazol-3-yl)urea]",1000 to 10000 nM
4,"COCCN1C[C@@H](NC(=O)Nc2c(-c3ccccc3)c(C)nn2C)[C@H](c2ccccc2)C1 (relative stereo) [Example 28, 1-(1,3-dimethyl-4-phenyl-1H-pyrazol-5-yl)-3-(trans-1-(2-methoxyethyl)-4-phenylpyrrolidin-3-yl)urea]",100 to 1000 nM
5,"COCCN1C[C@@H](NC(=O)Nc2c(-c3ccccc3)cnn2C)[C@H](c2ccccc2)C1 (relative stereo) [Example 31, 1-(trans-1-(2-methoxyethyl)-4-phenylpyrrolidin-3-yl)-3-(1-methyl-4-phenyl-1H-pyrazol-5-yl)urea]",100 to 1000 nM
6,"COCCN1C[C@@H](NC(=O)Nc2c3c(nn2-c2cnn(C)c2)CCC3)[C@H](c2ccccc2)C1 (relative stereo) [Example 33, 1-(trans-1-(2-methoxyethyl)-4-phenylpyrrolidin-3-yl)-3-(2-(1-methyl-1H-pyrazol-4-yl)-2,4,5,6-tetrahydrocyclo-penta[c]pyrazol-3-yl)urea]",100 to 1000 nM
7,"COCCN1C[C@@H](NC(=O)Nc2c3c(nn2-c2ccccn2)CCC3)[C@H](c2ccccc2)C1 (relative stereo) [Example 35, 1-(trans-1-(2-methoxyethyl)-4-phenylpyrrolidin-3-yl)-3-(2-(pyridin-2-yl)-2,4,5,6-tetrahydrocyclopenta[c]pyrazol-3-yl)urea]",1000 to 10000 nM
8,"COCCN1C[C@@H](NC(=O)Nc2c3c(nn2-c2ccccc2)C(C)(C)CCC3)[C@H](c2ccccc2)C1 (relative stereo) [Example 37, 1-(7,7-dimethyl-2-phenyl-4,5,6,7-tetrahydro-2H-indazol-3-yl)-3-(trans-1-(2-methoxyethyl)-4-phenylpyrrolidin-3-yl)urea]",< 100 nM
9,"COCCN1C[C@@H](NC(=O)Nc2c3c(nn2-c2ccccc2)CCC3)[C@H](c2ccncc2)C1 (relative stereo) [Example 38, 1-(trans-1-(2-methoxyethyl)-4-(pyridin-4-yl)pyrrolidin-3-yl)-3-(2-phenyl-2,4,5,6-tetrahydrocyclopenta[c]pyrazol-3-yl)urea]",< 100 nM
10,"COCCN1C[C@@H](NC(=O)Nc2c3c(nn2-c2ccccc2)CCC3)[C@H](c2cnco2)C1 (relative stereo) [Example 46, 1-(trans-1-(2-methoxyethyl)-4-(oxazol-5-yl)pyrrolidin-3-yl)-3-(2-phenyl-2,4,5,6-tetrahydrocyclopenta[c]pyrazol-3-yl)urea]",1000 to 10000 nM
11,"COCCN1C[C@@H](NC(=O)Nc2c3c(nn2-c2ccccc2)CCC3)[C@H](c2ccno2)C1 (relative stereo) [Example 47, 1-(trans-4-(isoxazol-5-yl)-1-(2-methoxyethyl)pyrrolidin-3-yl)-3-(2-phenyl-2,4,5,6-tetrahydrocyclopenta[c]pyrazol-3-yl)urea]",100 to 1000 nM
12,"O=C(Nc1c2c(nn1-c1ccccc1)CCC2)N[C@@H]1CN(CCOC(F)(F)F)C[C@H]1c1ccccc1 (relative stereo) [Example 182, 1-(trans-4-phenyl-1-(2-(trifluoromethoxy)ethyl)pyrrolidin-3-yl)-3-(2-phenyl-2,4,5,6-tetrahydrocyclopenta[c]pyrazol-3-yl)urea]",< 100 nM
13,"CSCCN1C[C@@H](NC(=O)Nc2c3c(nn2-c2ccccc2)CCC3)[C@H](c2ccccc2)C1 (relative stereo) [Example 183, 1-(trans-1-(2-(methylthio)ethyl)-4-phenylpyrrolidin-3-yl)-3-(2-phenyl-2,4,5,6-tetrahydrocyclopenta[c]pyrazol-3-yl)urea]",100 to 1000 nM
14,"CCN1C[C@@H](NC(=O)Nc2c3c(nn2-c2ccccc2)CCC3)[C@H](c2ccccc2)C1 (relative stereo) [Example 193, 1-((trans)-1-ethyl-4-phenylpyrrolidin-3-yl)-3-(2-phenyl-2,4,5,6-tetrahydrocyclopenta[c]pyrazol-3-yl)urea]",100 to 1000 nM
15,"O=C(Nc1c2c(nn1-c1ccccc1)CCC2)N[C@@H]1CN(CC(F)(F)F)C[C@H]1c1ccccc1 (relative stereo) [Example 194, 1-((trans)-4-phenyl-1-(2,2,2-trifluoroethyl)pyrrolidin-3-yl)-3-(2-phenyl-2,4,5,6-tetrahydrocyclopenta[c]pyrazol-3-yl)urea]",< 100 nM
16,"Cc1nn(-c2ccccc2)c(NC(=O)N[C@@H]2CN(CC(F)(F)F)C[C@H]2c2ccccc2)c1C (relative stereo) [Example 195, 1-(3,4-dimethyl-1-phenyl-1H-pyrazol-5-yl)-3-((trans)-4-phenyl-1-(2,2,2-trifluoroethyl)pyrrolidin-3-yl)urea]",< 100 nM
17,"COCCOc1nn(-c2ccccc2)c(NC(=O)N[C@@H]2CN(CC(F)(F)F)C[C@H]2c2ccccc2)c1C (relative stereo) [Example 196, 1-(3-(2-methoxyethoxy)-4-methyl-1-phenyl-1H-pyrazol-5-yl)-3-((trans)-4-phenyl-1-(2,2,2-trifluoroethyl)pyrrolidin-3-yl)urea]",< 100 nM
18,"O=C(Nc1c2c(nn1-c1ccccc1)CCC2)N[C@@H]1CN(C(CF)CF)C[C@H]1c1ccccc1 (relative stereo) [Example 206, 1-((trans)-1-(1,3-difluoropropan-2-yl)-4-phenylpyrrolidin-3-yl)-3-(2-phenyl-2,4,5,6-tetrahydrocyclopenta[c]pyrazol-3-yl)urea]",100 to 1000 nM

# Second part, the compound after the results:
row,IC50,SMILES
1,< 100 nM,"COCCN1C[C@@H](NC(=O)Nc2cc(C3CCCC3)nn2-c2ccccc2)[C@H](c2ccccc2)C1 (relative stereo) [Example 24, 1-(3-cyclopentyl-1-phenyl-1H-pyrazol-5-yl)-3-(trans-1-(2-methoxyethyl)-4-phenylpyrrolidin-3-yl)urea]"
2,1000 to 10000 nM,"COCCN1C[C@@H](NC(=O)Nc2cc(C(C)(C)C)nn2-c2ccccc2C)[C@H](c2ccccc2)C1 (relative stereo) [Example 29, 1-(3-tert-butyl-1-o-tolyl-1H-pyrazol-5-yl)-3-(trans-1-(2-methoxyethyl)-4-phenylpyrrolidin-3-yl)urea]"
3,< 100 nM,"COCCN1C[C@@H](NC(=O)Nc2cc(C(C)(C)C)nn2-c2cccc(C)c2)[C@H](c2ccccc2)C1 (relative stereo) [Example 30, 1-(3-tert-butyl-1-m-tolyl-1H-pyrazol-5-yl)-3-(trans-1-(2-methoxyethyl)-4-phenylpyrrolidin-3-yl)urea]"
4,100 to 1000 nM,"COCCN1C[C@@H](NC(=O)Nc2c(C#N)c(C)nn2-c2ccccc2)[C@H](c2ccccc2)C1 (relative stereo) [Example 32, 1-(4-cyano-3-methyl-1-phenyl-1H-pyrazol-5-yl)-3-(trans-1-(2-methoxy-ethyl)-4-phenylpyrrolidin-3-yl)urea]"
5,< 100 nM,"COCCN1C[C@@H](NC(=O)Nc2c3c(nn2-c2ccccc2)CCC3)[C@H](c2cccc(F)c2)C1 (relative stereo) [Example 39, trans-1-(4-(3-fluorophenyl)-1-(2-methoxyethyl)pyrrolidin-3-yl)-3-(2-phenyl-2,4,5,6-tetrahydrocyclopenta[c]pyrazol-3-yl)urea]"
6,< 100 nM,"COCCN1C[C@@H](NC(=O)Nc2cc(C(C)C)nn2-c2ccccc2)[C@H](c2cccc(F)c2)C1 (relative stereo) [Example 40, trans-1-(-4-(3-fluorophenyl)-1-(2-methoxyethyl)pyrrolidin-3-yl)-3-(3-isopropyl-1-phenyl-1H-pyrazol-5-yl)urea]"
7,< 100 nM,"COCCN1C[C@@H](NC(=O)Nc2cc(C(C)C)nn2-c2ccccc2)[C@H](c2ccc(F)cc2)C1 (relative stereo) [Example 41, trans-1-(4-(4-fluorophenyl)-1-(2-methoxyethyl)pyrrolidin-3-yl)-3-(3-isopropyl-1-phenyl-1H-pyrazol-5-yl)urea]"
8,< 100 nM,"COCCN1C[C@@H](NC(=O)Nc2cc(C(C)C)nn2-c2ccccc2)[C@H](c2cccc(Cl)c2)C1 (relative stereo) [Example 42, trans-1-(4-(3-chlorophenyl)-1-(2-methoxyethyl)pyrrolidin-3-yl)-3-(3-isopropyl-1-phenyl-1H-pyrazol-5-yl)urea]"
9,100 to 1000 nM,"COCCN1C[C@@H](NC(=O)Nc2cc(C(C)C)nn2-c2ccccc2)[C@H](c2ccccc2F)C1 (relative stereo) [Example 43, trans-1-(4-(2-fluorophenyl)-1-(2-methoxyethyl)pyrrolidin-3-yl)-3-(3-isopropyl-1-phenyl-1H-pyrazol-5-yl)urea]"
10,< 100 nM,"COCCN1C[C@@H](NC(=O)Nc2cc(C(C)C)nn2-c2ccccc2)[C@H](c2cccs2)C1 (relative stereo) [Example 44, trans-1-(3-isopropyl-1-phenyl-1H-pyrazol-5-yl)-3-(1-(2-methoxyethyl)-4-(thiophen-2-yl)pyrrolidin-3-yl)urea]"
